From ChEMBL document CHEMBL1201862, “PubChem BioAssay data set” (2004)
Active and inactive are the calls of the source.

Key:
Format in all cases: functional
[1] = target: T1, G-protein coupled receptor 35 (Homo sapiens, UniProt Q9HC97); test: SAR analysis of Agonists of the GPR35 Receptor using an Image-Based Assay - Set 2. [Related pubchem assays (depositor defined):AID2013, AID2026]
[2] = target: T2, G-protein coupled receptor 55 (Homo sapiens, UniProt Q9Y2T6); test: blockade of LPI-induced GPR55 arrestin translocation – imaging, U2OS, beta-arrestin-GFP, LPI agonist, set 2, SAR follow-up (AID 2820)
[3] = target: T3, Cannabinoid receptor 1 (Homo sapiens, UniProt P21554); test: SAR analysis of agonists of the Cannabinoid Receptor 1 using an Image-Based Assay - Set 2. [Related pubchem assays (depositor defined):AID2013, AID2026]
[4] = target: T4, Cannabinoid receptor 2 (Homo sapiens, UniProt P34972); test: SAR analysis of agonists of the Cannabinoid Receptor 2 using an Image-Based Assay. [Related pubchem assays (depositor defined):AID2013, AID2026]
[5] = target: T3, Cannabinoid receptor 1; test: SAR analysis of antagonists of the Cannabinoid Receptor 1 using an Image-Based Assay - Set 2. [Related pubchem assays (depositor defined):AID2013, AID2026]
[6] = target: T1, G-protein coupled receptor 35; test: SAR analysis of Antagonists of the GPR35 Receptor using an Image-Based Assay - Set 3. [Related pubchem assays (depositor defined):AID2013, AID2026]
[7] = target: T2, G-protein coupled receptor 55; test: inhibition of LPI-stimulated GPR55 beta-arrestin translocation – imaging, U2OS, beta-arrestin-GFP, LPI agonist, primary screen (AID 2013);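 also: antagonist potency measured as reduced agonist-driven arrestin aggregation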
[8] = target: T4, Cannabinoid receptor 2; test: SAR analysis of antagonists of the Cannabinoid Receptor 2 using an Image-Based Assay. [Related pubchem assays (depositor defined):AID2013, AID2026]
[9] = target: T5, Tyrosine-protein phosphatase non-receptor type 22 (Homo sapiens, UniProt Q9Y2R2); test: SAR LYP1 Fluorescent Assay using pCAP substrate for In Vitro dose response studies - Set 2. [Related pubchem assays (depositor defined):AID1779, AID1784, AID2135, AID449727]
T5 sequence (Q9Y2R2 whole entry): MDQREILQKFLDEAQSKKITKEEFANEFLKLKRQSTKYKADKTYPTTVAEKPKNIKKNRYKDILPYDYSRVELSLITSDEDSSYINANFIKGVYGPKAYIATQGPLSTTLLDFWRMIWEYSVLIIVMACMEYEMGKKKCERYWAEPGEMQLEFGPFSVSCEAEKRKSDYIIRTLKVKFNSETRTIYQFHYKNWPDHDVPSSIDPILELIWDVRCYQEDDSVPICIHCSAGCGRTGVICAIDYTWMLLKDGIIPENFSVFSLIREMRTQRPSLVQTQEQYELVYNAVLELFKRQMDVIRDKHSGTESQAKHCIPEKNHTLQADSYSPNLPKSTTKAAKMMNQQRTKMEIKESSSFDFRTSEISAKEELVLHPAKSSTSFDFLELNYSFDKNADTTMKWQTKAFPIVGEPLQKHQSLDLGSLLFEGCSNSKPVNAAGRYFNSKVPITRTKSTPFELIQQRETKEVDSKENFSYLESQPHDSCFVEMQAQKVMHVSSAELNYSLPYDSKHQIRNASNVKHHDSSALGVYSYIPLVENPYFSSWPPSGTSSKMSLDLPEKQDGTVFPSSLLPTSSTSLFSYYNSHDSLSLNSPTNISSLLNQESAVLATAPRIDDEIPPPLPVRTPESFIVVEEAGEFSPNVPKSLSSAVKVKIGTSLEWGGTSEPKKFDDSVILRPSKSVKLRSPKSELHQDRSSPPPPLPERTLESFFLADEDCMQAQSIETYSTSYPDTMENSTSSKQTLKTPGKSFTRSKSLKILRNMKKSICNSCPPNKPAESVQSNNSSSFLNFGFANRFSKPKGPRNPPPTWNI

[10] = target: T5, Tyrosine-protein phosphatase non-receptor type 22; test: inhibition of lymphoid tyrosine phosphatase LYP – biochemical, pCAP fluorogenic substrate, fluorescence, set 3, SAR follow-up (AID 449727)
[11] = target: T5, Tyrosine-protein phosphatase non-receptor type 22; test: SAR LYP1 Fluorescent Assay using OMFP substrate for In Vitro dose response studies - Set 3. [Related pubchem assays (depositor defined):AID1779, AID1784, AID2140, AID2686]
[12] = target: Tyrosine-protein phosphatase non-receptor type 12 (Homo sapiens, UniProt Q05209); test: SAR Selectivity Analysis of small molecule inhibitors of PEST using pCAP in a fluorescence assay. [Related pubchem assays (depositor defined):AID1779, AID1784, AID2135]
[13] = target: T5, Tyrosine-protein phosphatase non-receptor type 22; test: SAR LYP1 Fluorescent Assay using OMFP substrate for In Vitro dose response studies - Set 2. [Related pubchem assays (depositor defined):AID1779, AID1784, AID2140, AID449726, AID488869]
[14] = target: T6, Tyrosine-protein phosphatase non-receptor type 7 (Homo sapiens, UniProt P35236); test: inhibition of hematopoietic tyrosine phosphatase HePTP – biochemical, set 2, SAR follow-up (AID 449736)
T6 sequence (P35236 whole entry): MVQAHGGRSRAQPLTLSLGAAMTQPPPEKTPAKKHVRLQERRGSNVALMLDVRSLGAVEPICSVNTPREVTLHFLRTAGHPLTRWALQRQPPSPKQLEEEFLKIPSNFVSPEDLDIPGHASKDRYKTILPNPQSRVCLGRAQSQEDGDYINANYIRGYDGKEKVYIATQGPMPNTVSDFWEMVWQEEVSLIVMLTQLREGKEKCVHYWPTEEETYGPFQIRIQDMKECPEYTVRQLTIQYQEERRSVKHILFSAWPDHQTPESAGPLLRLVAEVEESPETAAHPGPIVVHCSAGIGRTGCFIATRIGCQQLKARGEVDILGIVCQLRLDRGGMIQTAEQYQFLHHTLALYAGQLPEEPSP

[15] = target: Intestinal-type alkaline phosphatase (Mus musculus, UniProt P24822); test: PubChem AID 488785
[16] = target: T7, Polyadenylate-binding protein 1 (Homo sapiens, UniProt P11940); test: MLLE binding blockers, Cy5 peptide tracer – biochemical, fluorescence polarization, Cy5-PAM2 peptide, secondary, miRNA deadenylation inhibitor project, dose response (AID 602260); conditions: read-out: IC50_Mean
[17] = target: T7, Polyadenylate-binding protein 1; test: MLLE domain peptide-binding blockers, IC50 – biochemical, fluorescence polarization, FITC-PAM2 peptide, dose response (AID 602259); conditions: read-out: IC50_Mean
[18] = target: T8, Alkaline phosphatase, tissue-nonspecific isozyme (Homo sapiens, UniProt P05186); test: TNAP enzyme inhibition by screening hits, dose response, selectivity assay for mouse IAP inhibitor project, biochemical, human TNAP, uHTS hits (AID 488906)
T8 sequence (P05186 whole entry): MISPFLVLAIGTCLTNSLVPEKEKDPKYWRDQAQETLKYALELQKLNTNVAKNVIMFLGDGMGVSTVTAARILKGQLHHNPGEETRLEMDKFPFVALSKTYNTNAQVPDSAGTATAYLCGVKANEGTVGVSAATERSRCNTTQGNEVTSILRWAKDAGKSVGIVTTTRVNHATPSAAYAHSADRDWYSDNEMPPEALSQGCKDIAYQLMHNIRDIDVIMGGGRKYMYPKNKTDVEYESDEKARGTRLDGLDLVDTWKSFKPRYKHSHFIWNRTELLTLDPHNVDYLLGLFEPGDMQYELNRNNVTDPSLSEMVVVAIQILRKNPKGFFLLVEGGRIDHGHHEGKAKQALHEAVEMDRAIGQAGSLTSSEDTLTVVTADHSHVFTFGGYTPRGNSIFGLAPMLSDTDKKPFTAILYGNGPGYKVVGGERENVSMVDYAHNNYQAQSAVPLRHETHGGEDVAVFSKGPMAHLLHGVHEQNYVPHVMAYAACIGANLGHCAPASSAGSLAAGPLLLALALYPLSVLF

[19] = target: Intestinal-type alkaline phosphatase (Homo sapiens, UniProt P09923); test: activation of human intestinal alkaline phosphatase – biochemical, dose response (AID 488873)
Intestinal-type alkaline phosphatase (Homo sapiens, UniProt P09923), sequence (P09923 whole entry): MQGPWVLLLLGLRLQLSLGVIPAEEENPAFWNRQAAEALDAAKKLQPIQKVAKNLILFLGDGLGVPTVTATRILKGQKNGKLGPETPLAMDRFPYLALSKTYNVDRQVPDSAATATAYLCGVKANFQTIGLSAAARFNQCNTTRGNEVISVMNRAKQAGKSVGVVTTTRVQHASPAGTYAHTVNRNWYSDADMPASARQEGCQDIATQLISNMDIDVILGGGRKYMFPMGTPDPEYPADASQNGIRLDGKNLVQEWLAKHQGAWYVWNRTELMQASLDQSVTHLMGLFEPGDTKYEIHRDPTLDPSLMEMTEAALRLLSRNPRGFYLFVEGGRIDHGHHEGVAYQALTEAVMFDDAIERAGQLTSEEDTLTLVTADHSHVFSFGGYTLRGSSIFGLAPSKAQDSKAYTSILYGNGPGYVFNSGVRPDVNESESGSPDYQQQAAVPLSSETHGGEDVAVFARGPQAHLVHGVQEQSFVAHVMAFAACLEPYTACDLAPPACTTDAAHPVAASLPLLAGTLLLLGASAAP

T3 sequence (P21554 whole entry): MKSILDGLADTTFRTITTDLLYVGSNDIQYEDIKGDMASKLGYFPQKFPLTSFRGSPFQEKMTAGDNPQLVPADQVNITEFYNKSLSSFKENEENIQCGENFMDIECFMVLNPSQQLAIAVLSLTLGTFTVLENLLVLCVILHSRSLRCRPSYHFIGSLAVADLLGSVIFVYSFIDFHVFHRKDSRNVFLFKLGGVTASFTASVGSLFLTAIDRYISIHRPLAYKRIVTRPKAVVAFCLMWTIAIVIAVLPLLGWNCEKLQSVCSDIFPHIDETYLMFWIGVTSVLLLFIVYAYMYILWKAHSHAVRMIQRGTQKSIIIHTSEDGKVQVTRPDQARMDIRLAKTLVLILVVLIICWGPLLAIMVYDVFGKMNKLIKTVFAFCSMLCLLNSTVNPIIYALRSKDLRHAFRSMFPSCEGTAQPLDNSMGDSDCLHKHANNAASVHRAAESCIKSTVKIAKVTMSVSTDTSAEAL
T1 sequence (Q9HC97 whole entry): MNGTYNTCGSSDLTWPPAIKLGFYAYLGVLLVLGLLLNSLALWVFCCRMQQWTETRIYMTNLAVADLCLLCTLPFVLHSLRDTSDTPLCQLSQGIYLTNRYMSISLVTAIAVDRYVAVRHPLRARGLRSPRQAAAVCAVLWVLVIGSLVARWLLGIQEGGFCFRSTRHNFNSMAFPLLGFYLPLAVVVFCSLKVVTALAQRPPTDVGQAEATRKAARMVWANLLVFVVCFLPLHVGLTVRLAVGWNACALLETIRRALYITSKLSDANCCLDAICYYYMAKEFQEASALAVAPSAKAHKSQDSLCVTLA
T2 sequence (Q9Y2T6 whole entry): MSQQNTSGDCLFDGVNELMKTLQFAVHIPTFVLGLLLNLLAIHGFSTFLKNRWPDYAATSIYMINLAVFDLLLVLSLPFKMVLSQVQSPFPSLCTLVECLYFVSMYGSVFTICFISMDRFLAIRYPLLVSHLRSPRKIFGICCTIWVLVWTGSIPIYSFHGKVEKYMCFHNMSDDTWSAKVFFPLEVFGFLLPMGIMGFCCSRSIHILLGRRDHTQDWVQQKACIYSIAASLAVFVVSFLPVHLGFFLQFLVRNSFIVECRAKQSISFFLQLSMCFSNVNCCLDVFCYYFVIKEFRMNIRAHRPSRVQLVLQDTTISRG
T4 sequence (P34972 whole entry): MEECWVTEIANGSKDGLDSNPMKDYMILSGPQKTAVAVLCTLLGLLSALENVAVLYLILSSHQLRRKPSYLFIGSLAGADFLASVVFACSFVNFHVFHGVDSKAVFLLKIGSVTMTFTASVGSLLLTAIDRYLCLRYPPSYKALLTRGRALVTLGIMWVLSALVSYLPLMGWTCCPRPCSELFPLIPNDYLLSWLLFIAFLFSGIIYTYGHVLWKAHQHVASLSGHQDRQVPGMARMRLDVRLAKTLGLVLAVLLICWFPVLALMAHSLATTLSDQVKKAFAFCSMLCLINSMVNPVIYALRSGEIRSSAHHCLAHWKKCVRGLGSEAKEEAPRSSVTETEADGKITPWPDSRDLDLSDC
T7 sequence (P11940 whole entry, the tested form may be a part): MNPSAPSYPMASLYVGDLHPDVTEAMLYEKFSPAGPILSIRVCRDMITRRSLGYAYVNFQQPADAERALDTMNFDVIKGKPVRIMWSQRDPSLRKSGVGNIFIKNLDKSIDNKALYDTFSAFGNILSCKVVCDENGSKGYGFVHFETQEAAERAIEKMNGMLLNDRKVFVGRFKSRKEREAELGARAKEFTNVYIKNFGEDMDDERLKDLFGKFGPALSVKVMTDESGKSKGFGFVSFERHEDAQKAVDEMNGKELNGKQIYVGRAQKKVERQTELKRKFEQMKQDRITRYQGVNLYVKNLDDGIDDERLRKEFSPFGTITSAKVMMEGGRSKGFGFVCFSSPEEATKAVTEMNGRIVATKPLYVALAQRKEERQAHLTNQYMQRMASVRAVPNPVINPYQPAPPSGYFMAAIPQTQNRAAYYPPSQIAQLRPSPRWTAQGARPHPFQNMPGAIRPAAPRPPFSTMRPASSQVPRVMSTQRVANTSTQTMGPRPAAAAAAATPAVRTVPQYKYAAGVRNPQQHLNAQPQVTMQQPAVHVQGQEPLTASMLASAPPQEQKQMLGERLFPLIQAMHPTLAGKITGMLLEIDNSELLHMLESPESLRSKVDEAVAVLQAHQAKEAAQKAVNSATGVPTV
Tyrosine-protein phosphatase non-receptor type 12, sequence (Q05209 whole entry): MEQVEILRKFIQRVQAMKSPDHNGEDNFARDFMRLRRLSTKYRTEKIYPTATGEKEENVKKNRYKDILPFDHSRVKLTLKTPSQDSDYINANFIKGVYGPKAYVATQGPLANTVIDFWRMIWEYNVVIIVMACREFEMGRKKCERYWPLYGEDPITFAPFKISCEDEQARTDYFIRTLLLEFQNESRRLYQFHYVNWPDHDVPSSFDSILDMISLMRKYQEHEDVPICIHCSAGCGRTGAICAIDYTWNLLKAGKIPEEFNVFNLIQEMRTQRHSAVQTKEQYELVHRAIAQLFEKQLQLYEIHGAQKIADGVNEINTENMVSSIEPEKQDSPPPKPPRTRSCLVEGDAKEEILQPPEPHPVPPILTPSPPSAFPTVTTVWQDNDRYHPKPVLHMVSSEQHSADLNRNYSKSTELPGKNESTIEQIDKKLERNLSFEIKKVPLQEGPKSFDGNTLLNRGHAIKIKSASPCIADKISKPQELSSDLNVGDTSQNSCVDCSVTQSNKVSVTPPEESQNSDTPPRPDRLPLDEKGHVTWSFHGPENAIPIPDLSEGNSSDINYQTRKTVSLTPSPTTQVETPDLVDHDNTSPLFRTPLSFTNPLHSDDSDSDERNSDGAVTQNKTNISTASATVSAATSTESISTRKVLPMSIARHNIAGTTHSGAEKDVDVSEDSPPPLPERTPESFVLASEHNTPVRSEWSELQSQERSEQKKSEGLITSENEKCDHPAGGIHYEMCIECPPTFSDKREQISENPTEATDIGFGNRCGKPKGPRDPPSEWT
Intestinal-type alkaline phosphatase (Mus musculus, UniProt P24822), sequence (P24822 whole entry): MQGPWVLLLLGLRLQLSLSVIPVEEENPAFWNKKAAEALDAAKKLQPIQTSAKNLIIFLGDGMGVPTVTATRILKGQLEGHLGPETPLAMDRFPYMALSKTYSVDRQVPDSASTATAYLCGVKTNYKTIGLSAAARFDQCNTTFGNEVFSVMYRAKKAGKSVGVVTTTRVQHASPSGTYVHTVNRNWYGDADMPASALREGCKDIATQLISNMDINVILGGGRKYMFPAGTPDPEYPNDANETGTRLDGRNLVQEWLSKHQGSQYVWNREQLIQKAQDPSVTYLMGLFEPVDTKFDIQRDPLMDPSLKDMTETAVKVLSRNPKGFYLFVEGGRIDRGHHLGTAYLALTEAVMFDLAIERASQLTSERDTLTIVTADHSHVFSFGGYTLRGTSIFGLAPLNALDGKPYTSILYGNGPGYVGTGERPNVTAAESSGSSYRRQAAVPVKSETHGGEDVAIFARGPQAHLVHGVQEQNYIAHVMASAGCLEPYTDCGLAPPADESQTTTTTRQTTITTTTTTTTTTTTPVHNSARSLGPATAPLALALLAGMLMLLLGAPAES

## COc1ccc(S(=O)(=O)Nc2ccc(F)cc2)cc1N(C)S(=O)(=O)c1ccc(Cl)cc1
[1]
  EC50: > 32 µM (inactive)
[2]
  IC50: 0.831 µM (active)
[3]
  EC50: > 32 µM (inactive)
[4]
  EC50: > 32 µM (inactive)
[5]
  IC50: 6.63 µM (active)
[6]
  IC50: > 32 µM (inactive)
[7]
  IC50: 0.908 µM (active)
[8]
  IC50: > 32 µM (inactive)

## O=C(O)COc1ccc(NC(=O)c2ccco2)cc1
[9]
  IC50: > 100 µM (inactive)
[10]
  IC50: > 100 µM (inactive)
[11]
  IC50: > 100 µM (inactive)
[12]
  IC50: > 100 µM (inactive)
[13]
  IC50: > 100 µM (inactive)
[14]
  IC50: > 100 µM (inactive)

## CCOC(=O)CN1C(=O)/C(=C2\SC(=S)N(NC(=O)c3cccnc3)C2=O)c2ccccc21
[15]
  IC50: 11.2 µM (active)
[16]
  IC50: > 66 µM (inactive)
[17]
  IC50: > 66 µM (inactive)
[18]
  IC50: > 100 µM (inactive)
[19]
  EC50: 25.5 µM (active)
